Reference: patent publication US12454530B2, “Amido cyclohexane acid derivatives as LPA receptor inhibitors” (CHIESI FARMACEUTICI S.P.A., priority 2020, dated 2025)

Key:
BSEP = BSEP (Homo sapiens (Human), UniProt O95342); assay: BSEP inhibition: biliary clearance of Taurocolic Acid in sandwich-cultured human hepatocytes; type: in vitro ADME; details: sandwich-cultured cryopreserved human hepatocytes, probe Taurocolic Acid (TCA); 50 μM test compound, 10 μM TCA, human hepatocytes sandwich configuration
Chain of BSEP (O95342 whole entry): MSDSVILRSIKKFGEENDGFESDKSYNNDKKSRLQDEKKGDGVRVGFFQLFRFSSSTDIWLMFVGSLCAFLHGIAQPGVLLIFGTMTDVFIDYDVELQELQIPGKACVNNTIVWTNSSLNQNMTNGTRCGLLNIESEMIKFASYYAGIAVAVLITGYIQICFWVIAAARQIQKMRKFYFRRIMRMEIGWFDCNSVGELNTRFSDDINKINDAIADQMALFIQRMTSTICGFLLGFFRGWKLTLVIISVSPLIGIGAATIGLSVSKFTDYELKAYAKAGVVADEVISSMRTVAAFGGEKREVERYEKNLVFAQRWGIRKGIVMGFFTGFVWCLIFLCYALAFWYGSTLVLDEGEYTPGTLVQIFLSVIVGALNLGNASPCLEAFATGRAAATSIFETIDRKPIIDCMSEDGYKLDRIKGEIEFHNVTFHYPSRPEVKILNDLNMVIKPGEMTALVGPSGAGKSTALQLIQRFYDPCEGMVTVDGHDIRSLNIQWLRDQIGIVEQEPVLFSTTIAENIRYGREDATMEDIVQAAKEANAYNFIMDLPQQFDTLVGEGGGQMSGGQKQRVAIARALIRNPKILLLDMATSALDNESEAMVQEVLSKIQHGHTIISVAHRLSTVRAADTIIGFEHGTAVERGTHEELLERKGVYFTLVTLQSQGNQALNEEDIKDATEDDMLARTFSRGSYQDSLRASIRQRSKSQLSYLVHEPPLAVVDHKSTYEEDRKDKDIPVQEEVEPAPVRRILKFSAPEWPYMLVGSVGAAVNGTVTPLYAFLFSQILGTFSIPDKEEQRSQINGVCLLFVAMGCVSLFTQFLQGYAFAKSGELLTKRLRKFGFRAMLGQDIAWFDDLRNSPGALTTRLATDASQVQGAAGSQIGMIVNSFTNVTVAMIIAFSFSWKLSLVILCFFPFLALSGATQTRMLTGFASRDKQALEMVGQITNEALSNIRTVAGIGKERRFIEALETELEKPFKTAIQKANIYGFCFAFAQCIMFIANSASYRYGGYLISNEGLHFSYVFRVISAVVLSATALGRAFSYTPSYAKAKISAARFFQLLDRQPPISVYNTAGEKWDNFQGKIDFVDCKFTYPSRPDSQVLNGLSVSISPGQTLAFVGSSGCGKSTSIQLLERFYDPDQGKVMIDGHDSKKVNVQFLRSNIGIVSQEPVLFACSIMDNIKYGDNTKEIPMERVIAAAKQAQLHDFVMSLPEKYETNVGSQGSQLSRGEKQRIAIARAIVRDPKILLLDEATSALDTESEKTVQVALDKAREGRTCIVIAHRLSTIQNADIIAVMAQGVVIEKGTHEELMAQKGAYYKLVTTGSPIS
Description: BSEP inhibition was evaluated using human hepatocytes cultured between two layer of collagen (sandwich configuration). In this culture condition, hepatocytes express relevant transporters including BSEP and retain the bile canalicular structure. An inhibition of the biliary clearance of Taurocolic Acid (TCA), a known BSEP substrate, was used to assess BSEP interaction.
BSEP inhibition was evaluated using cryopreserved human hepatocytes (Plateable Cryopreserved Human Hepatocytes, BIOIVT) cultured for 5 day between two layer of collagen (sandwich configuration). In this culture condition, hepatocytes express relevant transporters including BSEP and retain the bile canalicular structure.
On day 5 of culture, hepatic cells are ready for the assay and the biliary clearance of Taurocolic Acid (TCA), a known BSEP substrate, can be estimated in presence and in absence of compound of interest.
The sample solution was prepared dissolving test compound and TCA in DMSO and then diluted in the Assay Buffer: Hank's Balance Salt Solution (HBSS+) warmed at 37° C. before use, to give the 10 μM TCA working solution with and without 50 μM of test compound. Hepatocytes were incubated for 10 minutes with these working solutions allowing TCA to be excreted into bile. At the end of incubation, the working solution was aspirated, and the content of the bile was collected through the addition of HBSS Modified without Ca2+/Mg2+(HBSS−). The presence of Ca2+ in the buffer is required to maintain the integrity of the tight junctions, the diffusional barrier between the canalicular lumen and extracellular space. Instead, incubation of cells in Ca2+-free buffer disrupts the tight junctions and opens the bile canalicular structures, allowing the bile content to be released and collect for HPLC-MS/MS analysis.
The in vitro biliary clearance of TCA incubated with and without test compounds is calculated according to the following formula:
where • Acc. Bile=(TCA amount in HBSS (−) buffer samples (pmol/mg protein)*Volume of each samples (mL))/Protein content per well (mg) • AUC=Incubation time (min)*T0 Concentration. T0 concentration is the initial TCA concentration in the medium.
The inhibition of BSEP was calculated as percentage of inhibition of TCA biliary clearance in presence of compound of interest, according to the following formula: BSEP inhibition %=100−(TCA ClBil with test compound*100)
TCA ClBil without test compound.

[1] = target: human recombinant LPA1 expressed in CHO cells (Homo sapiens (Human), UniProt Q92633); assay: LPA1 antagonist FLIPR calcium assay in CHO-hLPA1 cells; type: cell-based; details: range of activity; CHO-hLPA1, LPA EC80, Ca2+ mobilization; read-out: LPA1 IC50
Chain of human recombinant LPA1 expressed in CHO cells (Q92633 whole entry): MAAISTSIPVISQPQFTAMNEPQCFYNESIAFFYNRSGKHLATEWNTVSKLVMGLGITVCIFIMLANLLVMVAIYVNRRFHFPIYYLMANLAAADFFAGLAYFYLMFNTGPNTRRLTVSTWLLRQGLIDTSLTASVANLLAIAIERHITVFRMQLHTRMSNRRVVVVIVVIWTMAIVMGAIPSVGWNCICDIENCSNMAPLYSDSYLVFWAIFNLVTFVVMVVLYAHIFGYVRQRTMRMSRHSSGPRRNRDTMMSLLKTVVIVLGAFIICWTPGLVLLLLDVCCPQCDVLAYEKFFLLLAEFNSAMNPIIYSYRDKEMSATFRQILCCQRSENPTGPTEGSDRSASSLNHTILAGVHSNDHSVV
Description: The effectiveness of compounds of the present invention as LPA1 antagonists can be determined at the human recombinant LPA1 expressed in CHO cells, using a FLIPR assay in 384 well format.
CHO-hLPA1 cell lines are cultured in a humidified incubator at 5% CO2 in DMEM/F-12 (1:1) MIXTURE with 2 mM Glutamax, supplemented with 10% of Foetal Bovine Serum, 1 mM Sodium Pyruvate, 11 mM Hepes and 1× Penicillin/Streptomycin. […] Serial dilutions (1:3 or 1:4, 11 points CRC) of compounds are performed in 100% DMSO at 200× the final concentration. […] The final concentration of DMSO in the assay will be 0.5% in each well. Medium is removed by aspiration and cells are then incubated with 30 μl of a loading solution containing 5 μM of the cytoplasmic Ca2+ indicator Cal-520 AM in Assay Buffer containing 2.5 mM probenecid for 30 min at 37° C. incubator (cell loading). The loaded cell plates are transferred into the FLIPR instrument and calcium responses are monitored during the on-line addition protocols. For testing of compounds, after the cell loading, 10 μl/well of 4× antagonists' solution was added onto the cells. After 30 min pre-incubation (at 37° C.), 10 μl/well of 5× concentrated LPA EC80 was added and Ca2+ mobilization responses was followed during the on-line addition protocol. Intracellular peak fluorescence values subtracted by baseline fluorescence are exported and analysed to determine IC50 values, respectively. The calcium response is expressed as percentage of the maximal inhibition of the EC80 agonist response.
The raw data (peak height expressed as relative fluorescence units) are normalized and transformed into “percent of inhibition”. Curve fitting and pIC50 (−LogIC50) estimations are carried out using a four-parameter logistic model using XLfit Software.

[2] = Permeability on Caco-2 cells monolayers; type: in vitro ADME; details: human, with Elacridar 10 µM (PgP inhibitor), Papp A>B with PgP inhibitor Elacridar, 10 μM compound, read-out: Passive Permeability
Description: Even more advantageously, the compounds of formula (I) of the present invention are also endowed with a good permeability profile that, in its turn, can ensure a suitable bioavailability for an oral administration. The permeability was assessed in human Caco 2 cell line, an in vitro model that mimic human gastrointestinal barrier and so useful to predic oral absorption.
The permeability of the compounds of the present invention was evaluated performing the assay on Caco-2 cells monolayers (human colon adenocarcinoma immortalized cell) by measuring the transport of compound (absorption and secretion) in both directions: apical to basolateral direction (A>B) and basolateral to apical (B>A) with and without PgP inhibitor (Elacridar).
The cells, purched from ReadyCell in 96 well format (Cod. KRECE-CCR50), were cultured by the supplier for 21 day on transwell supports in DMEM 1 g/L glucose culture medium supplemented with Fetal Bovin Sierum (10%), Glutamine 200 mM (1%) and Penicillin 10000 U/ml-10 mg/ml Streptomycin (1%).
On day 21 of colture, cell monolayers integrity was verified by measuring the trans-epithelial electric resistance (TEER) using the EVOM equipment (Endohm, WPI, Germany) and studying the apparent permeability (Papp) of reference compounds (Sulpiride and Metoprolol). Furthermore, as a control, the Talinolol 10 uM (Pgp efflux substrate) with and without Elacridar in both directions was used.
The sample solution was prepared dissolving test compound in DMSO at the concentration of 10 mM and then diluted in the Assay Buffer (Hank's Balance Salt Solution) warmed at 37° C. before use, to give the 10 μM Compound working solution with and without 10 μM Elacridar. These working solutions were added to donor compartment (apical for A>B direction and basolateral for B>A direction) and Assay Buffer (Hank's Balance Salt Solution) to the receiver compartment (basolateral for A>B direction and apical for B>A direction). The plate was incubated at 37° C. for 120 min, all incubation were conducted in triplicates. At the end of incubation, samples from donor and receiver compartments were collected for HPLC-MS/MS analyses.
The permeability coefficients (Papp) in both directions: apical to basolateral (A>B) and basolateral to apical (B>A) with and without PgP inhibitor (Elacridar) was calculated in nm/sec, using the following equation:
[formula] • where: • Cr=measured concentration in the receiver well at the time t (expressed as IS ratio) • Vr=volume of the receiver well (ml) • t=time (sec) • A=membrane surface area (cm^2) • C0=initial donor concentration • Passive Papp is considered Papp A>B with PgP inhibitor Elacridar.

Structure (SMILES) | IC50 [1] | Papp at 120 min, 10 µM [2] | inhibition at 10 min, 50 μM (BSEP)
C[C@@H](OC(=O)Nc1ccsc1-c1ccc(NC(=O)C2CCCCC2C(=O)O)cc1)c1ccccc1Cl (single isomer, unassigned) [Example 7] | < 50 nM | ≥ 1.5 ×10⁻⁶ cm/s | ≤ 50%
Cc1nc(-c2onc(C)c2NC(=O)O[C@H](C)c2ccccc2Cl)ccc1NC(=O)[C@H]1CCCC[C@@H]1C(=O)O [Example 1, (1S,2S)-2-((6-(4-((((R)-1-(2-chlorophenyl)ethoxy)carbonyl)amino)-3-methylisoxazol-5-yl)-2-methylpyridin-3-yl)carbamoyl)cyclohexane-1-carboxylic acid] | – | ≥ 1.5 ×10⁻⁶ cm/s | ≤ 50%
Cc1nc(-c2onc(C)c2NC(=O)O[C@H](C)c2ccccc2Cl)ccc1NC(=O)[C@@H]1CCCC[C@H]1C(=O)O [Example 12, (1R,2R)-2-((6-(4-((((R)-1-(2-chlorophenyl)ethoxy)carbonyl)amino)-3-methylisoxazol-5-yl)-2-methylpyridin-3-yl)carbamoyl)cyclohexane-1-carboxylic acid] | – | ≥ 1.5 ×10⁻⁶ cm/s | ≤ 50%
Cc1noc(-c2ccc(NC(=O)[C@H]3CCCC[C@@H]3C(=O)O)cn2)c1NC(=O)O[C@H](C)c1ccccc1Cl [Example 16, (1S,2S)-2-((6-(4-((((R)-1-(2-chlorophenyl)ethoxy)carbonyl)amino)-3-methylisoxazol-5-yl)pyridin-3-yl)carbamoyl)cyclohexane-1-carboxylic acid] | – | ≥ 1.5 ×10⁻⁶ cm/s | ≤ 50%
Cc1nc(-c2onc(C)c2NC(=O)O[C@H](C)c2ccccc2F)ccc1NC(=O)[C@H]1CCCC[C@@H]1C(=O)O [Example 24, (1S,2S)-2-((6-(4-((((R)-1-(2-fluorophenyl)ethoxy)carbonyl)amino)-3-methylisoxazol-5-yl)-2-methylpyridin-3-yl)carbamoyl)cyclohexane-1-carboxylic acid] | < 50 nM | ≥ 1.5 ×10⁻⁶ cm/s | ≤ 50%
Cc1nc(-c2onc(C)c2NC(=O)O[C@H](C)c2ccccc2C(F)(F)F)ccc1NC(=O)[C@H]1CCCC[C@@H]1C(=O)O [Example 25, (1S,2S)-2-((2-methyl-6-(3-methyl-4-((((R)-1-(2-(trifluoromethyl)phenyl)ethoxy)carbonyl)amino)isoxazol-5-yl)pyridin-3-yl)carbamoy1)cyclohexane-1-carboxylic acid] | 50 to 250 nM | ≥ 1.5 ×10⁻⁶ cm/s | ≤ 50%

More lines, main results first:

IC50 [1] | Papp at 120 min, 10 µM [2] | Structure (SMILES) | inhibition at 10 min, 50 μM (BSEP)
50 to 250 nM | ≥ 1.5 ×10⁻⁶ cm/s | Cc1noc(-c2ccc(NC(=O)C3CCCCC3C(=O)O)cn2)c1NC(=O)O[C@H](C)c1ccccc1 (stereo in doubt) [Example 40, Cis-2-((6-(3-methyl-4-((((R)-1-phenylethoxy)carbonyl)amino)isoxazol-5-y1)pyridin-3-yl)carbamoyl)cyclohexane-1-carboxylic acid] | ≤ 50%
– | ≥ 1.5 ×10⁻⁶ cm/s | Cc1nc(-c2onc(C)c2NC(=O)O[C@H](C)c2ccccc2)ccc1NC(=O)[C@H]1CCCC[C@@H]1C(=O)O [Example 27, (1S,2S)-2-((2-methyl-6-(3-methyl-4-((((R)-1-phenylethoxy)carbonyl)amino)isoxazol-5-yl)pyridin-3-yl)carbamoy1)cyclohexane-1-carboxylic acid] | ≤ 50%
< 50 nM | ≥ 1.5 ×10⁻⁶ cm/s | Cc1nc(-c2onc(C)c2NC(=O)O[C@H](C)c2ccccc2Br)ccc1NC(=O)[C@H]1CCCC[C@@H]1C(=O)O [Example 28, (1S,2S)-2-((6-(4-((((R)-1-(2-bromophenyl)ethoxy)carbonyl)amino)-3-methylisoxazol-5-yl)-2-methylpyridin-3-yl)carbamoyl)cyclohexane-1-carboxylic acid] | –
– | ≥ 1.5 ×10⁻⁶ cm/s | Cc1ccccc1[C@@H](C)OC(=O)Nc1c(C)noc1-c1ccc(NC(=O)[C@H]2CCCC[C@@H]2C(=O)O)c(C)n1 [Example 32, (1S,2S)-2-((2-methyl-6-(3-methyl-4-((((R)-1-(o-toly1)ethoxy)carbonyl)amino)isoxazol-5-yl)pyridin-3-yl)carbamoyl)cyclohexane-1-carboxylic acid] | ≤ 50%
– | ≥ 1.5 ×10⁻⁶ cm/s | Cc1nc(-c2onc(C)c2NC(=O)O[C@H](C)c2ccccc2)ccc1NC(=O)C1CCCCC1C(=O)O (stereo partly drawn) [Example 39, Cis-2-((2-methyl-6-(3-methyl-4-((((R)-1-phenylethoxy)carbonyl)amino)isoxazol-5-yl)pyridin-3-yl)carbamoyl)cyclohexane-1-carboxylic acid] | ≤ 50%
– | ≥ 1.5 ×10⁻⁶ cm/s | CCC[C@@H](C)OC(=O)Nc1c(C)noc1-c1ccc(NC(=O)[C@H]2CCCC[C@@H]2C(=O)O)c(C)n1 [Example 49, (1S,2S)-2-((2-methyl-6-(3-methyl-4-(((((R)-pentan-2-yl)oxy)carbonyl)amino)isoxazol-5-yl)pyridin-3-yl)carbamoyl)cyclohexane-1-carboxylic acid] | ≤ 50%
– | < 1.5 ×10⁻⁶ cm/s | Cc1noc(-c2ccc(NC(=O)[C@H]3CCCC[C@@H]3C(=O)O)cc2)c1NC(=O)O[C@H](C)c1ccccc1Cl [comparative Example A, (1S,2S)-2-({4-[3-methyl-4-({[(1R)-1-(2-chlorophenyl)ethoxy]carbonyl}amino)-1,2-oxazol-5-yl]phenyl}carbamoyl)cyclohexane-1-carboxylic acid, reference compound] | > 70%
